In patent US11090304B2 (Amgen Inc., priority 2018, dated 2021):
Like-named read-outs stand apart in the source and are kept apart here.

How the values were obtained:
[1] = test system: Phosphorylation of ERK1/2 in MIA PaCa-2 cells; assay: Phospho-ERK1/2 MSD assay in MIA PaCa-2 cells; type: cell-based; settings: read-out: p-ERK IC50 (2 h; MIA PaCa-2), 2 h compound treatment
Method in brief: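 MSD electrochemiluminescence readout of phospho-ERK1/2 in whole-cell lysates, IC50 by 4-parameter logistic fit. Compound titrations were applied for 2 or 4 h at 37 °C, 5% CO2, followed by 10 ng/mL EGF stimulation for 10 min before lysis.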

[2] = biological target: GDP-bound KRAS protein (aa 1-169), containing both G12C and C118A amino acid substitutions (Homo sapiens, UniProt P01116, C118A/G12C); assay: Coupled nucleotide exchange assay (SOS-mediated, AlphaScreen); type: biochemical; settings: 5 min compound pre-incubation
Sequence of GDP-bound KRAS protein (aa 1-169), containing both G12C and C118A amino acid substitutions (P01116 1-169 isoform P01116-2 G12C/C118A): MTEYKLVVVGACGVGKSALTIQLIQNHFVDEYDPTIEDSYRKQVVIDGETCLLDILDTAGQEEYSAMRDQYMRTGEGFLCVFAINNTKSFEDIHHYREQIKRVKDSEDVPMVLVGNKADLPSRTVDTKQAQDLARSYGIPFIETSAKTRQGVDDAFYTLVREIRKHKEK

IC50 ([1]; Homo sapiens, MIA PaCa-2, 2 h) [µM]	Coupled exchange IC50 (5 min) [2]	IC50 [1] [µM]	Structure (SMILES)
0.084	0.077 | nda μM	–	C=CC(=O)N1CCN(c2nc(=O)n(-c3ccccc3C(C)C)c3nc(-c4cc(O)ccc4F)c(Cl)cc23)[C@@H](C)C1 (single isomer, unassigned) [Example 54-88-1]
–	0.047 | nda μM	0.063	C=CC(=O)N1CCN(c2nc(=O)n(-c3ccccc3C(C)C)c3nc(-c4cc(O)ccc4Cl)c(Cl)cc23)[C@@H](C)C1 (single isomer, unassigned) [Example 54-90-1]
–	0.633 | nda μM	0.568	C=CC(=O)N1CCN(c2nc(=O)n(-c3ccccc3C(C)C)c3nc(-c4cc(O)ccc4Cl)c(Cl)cc23)[C@@H](C)C1 (single isomer, unassigned) [Example 54-90-2]
–	0.021 | nda μM	0.033	C=CC(=O)N1CCN(c2nc(=O)n(-c3ccccc3C(C)C)c3nc(-c4cc(O)cc(Cl)c4Cl)c(Cl)cc23)[C@@H](C)C1 (single isomer, unassigned) [Example 54-91-1]
–	0.181 | nda μM	0.509	C=CC(=O)N1CCN(c2nc(=O)n(-c3ccccc3C(C)C)c3nc(-c4cc(O)cc(Cl)c4Cl)c(Cl)cc23)[C@@H](C)C1 (single isomer, unassigned) [Example 54-91-2]
–	0.971 | nda μM	1.02	C=CC(=O)N1CCN(c2nc(=O)n(-c3ccccc3C3(C)CC3)c3nc(-c4c(O)cccc4F)c(Cl)cc23)[C@@H](C)C1 (single isomer, unassigned) [Example 54-97-1]
–	0.044 | nda μM	0.141	C=CC(=O)N1CCN(c2nc(=O)n(-c3ccccc3C3(C)CC3)c3nc(-c4c(O)cccc4F)c(Cl)cc23)[C@@H](C)C1 (single isomer, unassigned) [Example 54-97-2]
0.21	0.035 | nda μM	–	C=CC(=O)N1CCN(c2nc(=O)n(-c3c(C(C)C)cccc3N(C)C)c3nc(-c4ccccc4F)c(Cl)cc23)[C@@H](C)C1 (single isomer, unassigned) [Example 54-104-2]
0.048	0.067 | nda μM	–	C=CC(=O)N1CCN(c2nc(=O)n(-c3c(OC)ncnc3C(C)C)c3nc(-c4ccccc4F)c(Cl)cc23)[C@@H](C)C1 (single isomer, unassigned) [Example 54-107-2]

Second part, the compound before the results:

Structure (SMILES)	IC50 ([1]; Homo sapiens, MIA PaCa-2, 2 h) [µM]	Coupled exchange IC50 (5 min) [2]	IC50 [1] [µM]
C=CC(=O)N1CCN(c2nc(=O)n(-c3ccccc3C(C)C)c3nc(-c4ccc(F)cc4O)c(Cl)cc23)[C@@H](C)C1 (single isomer, unassigned) [Example 54-77-2]	0.176	0.136 | nda μM	–
C=CC(=O)N1CCN(c2nc(=O)n(-c3ccccc3C(C)C)c3nc(-c4cc(F)ccc4O)c(Cl)cc23)[C@@H](C)C1 (single isomer, unassigned) [Example 54-78-2]	0.311	0.212 | nda μM	–
C=CC(=O)N1CCN(c2nc(=O)n(-c3ccccc3C(C)C)c3nc(-c4ccc(F)cc4F)c(Cl)cc23)[C@@H](C)C1 (single isomer, unassigned) [Example 54-85-1]	–	3.4 | nda μM	1.51
C=CC(=O)N1CCN(c2nc(=O)n(-c3ccccc3C(C)C)c3nc(-c4ccc(F)cc4F)c(Cl)cc23)[C@@H](C)C1 (single isomer, unassigned) [Example 54-85-2]	–	0.078 | nda μM	0.079
C=CC(=O)N1CCN(c2nc(=O)n(-c3ccccc3C3(C)CC3)c3nc(-c4ccccc4F)c(Cl)cc23)[C@@H](C)C1 (single isomer, unassigned) [Example 54-99-2]	0.174	0.094 | nda μM	–
C=CC(=O)N1CCN(c2nc(=O)n(-c3cccnc3C(C)(C)C)c3nc(-c4c(O)cccc4F)c(Cl)cc23)[C@@H](C)C1 (single isomer, unassigned) [Example 54-103-1]	0.093	0.073 | nda μM	–
